Assay results from publication PMC11111691, “Cystine-knot peptide inhibitors of HTRA1 bind to a cryptic pocket within the active site region” (Nature Communications, 2024).
Entries after “also recorded” stand apart in the source; their conditions may differ. Positions of bridges follow the written chain, without caps; N, C: chain ends. Residues, ends and D or L forms follow the SMILES beside them.

Assays:
MDCK monolayer = experiment: MDCK trans-well cell permeability assay; format: in vitro ADME, canine; conditions: MDCK trans-well, apical to basolateral, up to 50 µM, 16 h, mass spectrometry
Protocol: (§4) We carried out a cell permeability study using a MDCK trans-well assay, which is commonly
(§5) used at Genentech for permeability screening of compounds . This assay measures the flux of test
(§6) compound (Papp, apparent permeability) across a MDCK monolayer from the apical to the
(§7) basolateral compartment over a 16 h period.
sensitive mass spectrometry method .
(§8) 10x10-6 cm/s and compounds with Papp values of <1x10-6 cm/s are considered to be of low
Protocol of permeability assay:
(§9) Experiments were carried out as described (Chen et al. Evaluating the utility of canine Mdr1 knockout
(§10) Madin-Darby canine kidney I cells in permeability screening and efflux substrate determination, Mol
(§11) Cells were seeded in 96-well Corning Transwell plates (PET membrane, 1 µm pore size) at 75,000 cells
(§12) per well and grown in DMEM media supplemented with 10% FBS, 1% pen-strep and 1x Glutamax at
(§13) 37C, 5% CO2 for 48 h to ensure monolayer formation. Stock solutions of the three CKPs 1B3, 1D3-ENI
(§14) and 1G10-ENI were diluted in Hank's Balanced Salt solution containing 25 mM HEPES, pH 7.4 and 25
(§15) µM of the monolayer integrity marker lucifer yellow. CKPs at a concentration of 50 µM were added to
(§16) the apical (donor) chamber and the CKP the apparent permeability (Papp) was determined by quantifying
(§17) the amount of CKP in the basolateral (receiver) chamber after 16 h incubation at 37C, 5% CO2. The
(§18) samples from the basolateral chamber were supplemented with the experiment analytical internal standard
(§19) (100 nM propranolol in 50% ACN:50% water with 0.1% formic acid) and then injected in a Sciex Zeno
(§20) TOF 7600 mass spectrometer using TOF/MS mode.

[1] = MDCK trans-well cell permeability assay; format: in vitro ADME, canine; conditions: dog, MDCK trans-well (protocol of Chen et al. 2018, canine Mdr1 knockout MDCK I), apical to basolateral, 50 µM CKP, 37C, 5% CO2, HBSS 25 mM HEPES pH 7.4, TOF/MS read-out, n = 4-6, read-out: Papp (apparent permeability)
Protocol: as §4, §5, §6, §7
sensitive mass spectrometry method .
as §8
Protocol of permeability assay:
as §9, §10, §11, §12, §13, §14, §15, §16, §17, §18, §19, §20

HeLa cells = experiment: Cell toxicity assay (CellTiter-Glo), HeLa; format: cell-based; conditions: 0.6-50 µM CKP, 24 h and 72 h, at least three independent experiments
Protocol: (§1) reduction at the highest CKP concentration of 50 µM after 72 h (see results below). The absence of cell toxicity is likely due to the inability of the CKPs to penetrate cell membranes, which was experimentally determined in response to another reviewer. Due to space limitations we have not […]
(§2) Protocol of cell toxicity assay (Figure above):
(§3) HeLa cells or C32 melanoma cells were passaged in DMEM media supplemented with 10% FBS, 1% pen-strep and 1x Glutamax using standard culture conditions (5% CO2, 90% humidity at 37°C). At approximately 95% confluence cells were trypsinized, seeded onto 96-well plates (Corning) at 10,000 cells/well and grown for 24 h. Cells were then incubated with the CKPs 3B3, 1D3-ENI and 1G10-ENI (0, 0.6, 1.9, 5.6, 16.7 and 50 µM) at 37°C for 24 h or for 72h. As a positive control we used staurosporine (STS; 1µM). Cell viability was measured using the CellTiter-Glo luminescent cell viability assay (Promega) on an Envision Multilabel plate reader. Average of at least three independent experiments ± S.D. were plotted in Prism 10. Two-way ANOVA was performed on each dataset and compared to no drug samples and no significant viability reductions were observed, except for some treatments at the […]

C32 melanoma cells = experiment: Cell toxicity assay (CellTiter-Glo), C32; format: cell-based, human; conditions: for Viability reduction, C32 cells, 72 h: 50 µM CKP; for Cell viability, C32 melanoma cells: 0.6-50 µM CKP, 24 h and 72 h, at least three independent experiments
Protocol: as §1, §2, §3

CKP stability assay = format: physicochemical; conditions: chemical stability, PBS containing 0.15% DMSO, 0.3 mM (~1 mg/ml), 37 °C, LC-MS, HPLC UV 220 nm peak area normalized to DMSO peak, two independent experiments, preliminary
Protocol: The CKPs 1G10 and 1G10-ENI were incubated in PBS containing 0.15% DMSO at a concentration of 0.3 mM (~1 mg/ml) at 37 °C for 30 days. Samples from two independently performed experiments were frozen at −20 °C until further analysis. Thawed samples were diluted in H2O and injected into LC-MS (Agilent). From the HPLC UV trace (at 220 nm) the CKP peak area was normalized to the DMSO peak area from the same run. The values obtained from multiple HPLC runs were averaged and shown as dot plot.

Row | Compound | Cell permeability in the MDCK cell assay (MDCK monolayer) | Papp A→B at 16 h, 50 µM [1] [×10⁻⁶ cm/s] | Cell viability, HeLa cells (HeLa cells) | Viability reduction, C32 cells, 72 h (C32 melanoma cells) [%] | Cell viability, C32 melanoma cells (C32 melanoma cells) | Stability: intact peptide after 30 days (CKP stability assay)
1 | CC[C@H](C)[C@H](N)C(=O)N[C@@H](Cc1c[nH]c2ccccc12)C(=O)N1CCC[C@H]1C(=O)N[C@@H](CC(=O)O)C(=O)N1CCC[C@H]1C(=O)N[C@H](C(=O)N[C@H]1CSSC[C@@H]2NC(=O)[C@H](Cc3ccccc3)NC(=O)[C@H](Cc3c[nH]c4ccccc34)NC(=O)[C@H](C)NC(=O)CNC(=O)[C@H](CO)NC(=O)[C@@H]3CSSC[C@@H](C(=O)NCC(=O)N[C@@H](Cc4c[nH]c5ccccc45)C(=O)NCC(=O)N[C@H](C(=O)N[C@@H](CCCNC(=N)N)C(N)=O)[C@@H](C)CC)NC(=O)[C@H](CO)NC(=O)[C@H](Cc4c[nH]c5ccccc45)NC(=O)[C@H](CC(N)=O)NC(=O)[C@H](C)NC(=O)[C@H](Cc4ccc(O)cc4)NC(=O)[C@H](Cc4ccc(O)cc4)NC(=O)[C@H](CSSC[C@H](NC(=O)[C@@H]4CCCN4C(=O)[C@H](CCCCN)NC(=O)[C@H](CC(N)=O)NC1=O)C(=O)N[C@@H](CCC(=O)O)C(=O)N[C@@H]([C@@H](C)O)C(=O)N[C@@H](Cc1c[nH]cn1)C(=O)N[C@@H](CC(=O)O)C(=O)N[C@@H](CC(=O)O)C(=O)N3)NC(=O)[C@H]([C@@H](C)O)NC(=O)[C@H](CCC(N)=O)NC2=O)[C@@H](C)CC [1D3-ENI] (H-IWPDPICNKPCETHDDCSGAWFCQTCYYANWSCGWGIR-NH2; disulfide 7-23, 11-26, 17-33) | no detectable cell permeability | < 0.003 | did not appreciably affect cell viability | 13 | did not appreciably affect cell viability | –
2 | CC[C@H](C)[C@H](NC(=O)CNC(=O)[C@H](Cc1c[nH]c2ccccc12)NC(=O)CNC(=O)[C@@H]1CSSC[C@@H]2NC(=O)[C@H](CC(=O)O)NC(=O)[C@H](CC(=O)O)NC(=O)[C@H](Cc3c[nH]cn3)NC(=O)[C@H]([C@@H](C)O)NC(=O)[C@H](CCC(=O)O)NC(=O)[C@@H]3CSSC[C@H](NC(=O)[C@H]([C@@H](C)O)NC(=O)[C@H](CCC(N)=O)NC(=O)[C@H](CSSC[C@H](NC(=O)[C@@H](NC(=O)[C@@H]4CCCN4C(=O)[C@H](CC(=O)O)NC(=O)[C@@H](NC(=O)[C@@H]4CCCN4C(=O)[C@@H](N)Cc4ccc(O)cc4)C(C)C)[C@@H](C)CC)C(=O)N[C@@H](CC(N)=O)C(=O)N[C@@H](CCCCN)C(=O)N4CCC[C@H]4C(=O)N3)NC(=O)[C@H](Cc3ccccc3)NC(=O)[C@H](Cc3c[nH]c4ccccc34)NC(=O)[C@H](C)NC(=O)CNC(=O)[C@H](CO)NC2=O)C(=O)N[C@@H](Cc2ccc(O)cc2)C(=O)N[C@@H](Cc2ccc(O)cc2)C(=O)N[C@@H](C)C(=O)N[C@@H](CC(N)=O)C(=O)N[C@@H](Cc2c[nH]c3ccccc23)C(=O)N[C@@H](CO)C(=O)N1)C(=O)N[C@@H](CCCNC(=N)N)C(N)=O [1G10-ENI] (H-YPVDPICNKPCETHDDCSGAWFCQTCYYANWSCGWGIR-NH2; disulfide 7-23, 11-26, 17-33) | no detectable cell permeability | < 0.003 | did not appreciably affect cell viability | 13 | did not appreciably affect cell viability | no change in peptide mass at 30 days; also recorded: highly stable
